Target: T1, Adenosine-A2A Receptor (AA2AR) (Homo sapiens, UniProt P29274)
T1 construct: gene ADORA2A; human AA2AR N-terminally fused to the flag and decahistidine tags, in nanodiscs
Test: biochemical
Type: binding

T1 sequence (P29274 whole entry, the tested form may be a part): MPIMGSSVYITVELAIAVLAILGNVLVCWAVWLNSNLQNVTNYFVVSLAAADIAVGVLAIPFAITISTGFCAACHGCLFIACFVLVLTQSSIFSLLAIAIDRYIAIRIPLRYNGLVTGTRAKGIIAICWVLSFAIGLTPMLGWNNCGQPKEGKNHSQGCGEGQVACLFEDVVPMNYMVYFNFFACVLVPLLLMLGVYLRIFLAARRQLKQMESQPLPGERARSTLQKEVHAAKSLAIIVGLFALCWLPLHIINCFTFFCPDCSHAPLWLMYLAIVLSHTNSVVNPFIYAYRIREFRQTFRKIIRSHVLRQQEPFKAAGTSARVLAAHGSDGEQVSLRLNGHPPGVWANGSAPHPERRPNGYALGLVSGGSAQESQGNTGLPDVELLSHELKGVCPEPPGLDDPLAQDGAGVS

| Kd | Structure (SMILES) |
| --- | --- |
| 210 µM | COc1ccc2[nH]ccc2n1 [F468, 5-methoxy-1H-pyrrolo[3,2-b]pyridine] |
| 190 µM | COc1cc2cc[nH]c2cn1 [F469, 5-methoxy-1H-pyrrolo[2,3-c]pyridine] |

— publication PMC10608817, “Extending the Affinity Range of Weak Affinity Chromatography for the Identification of Weak Ligands Targeting Membrane Proteins” (Molecules, 2023)
